Data on 3 compounds can be found in patent US4591601A, “Anticonvulsant dioxolane methane sulfamates” (McNeilab, Inc., priority 1985, dated 1986).

The subject of the experiment is tonic extensor seizure. As to the kind of experiment: maximal electroshock test (MES), block of tonic extensor seizure. Format: in vivo, mice (male albino, Swiss Webster). To be noted: Mus musculus, ip, 0.5 h; mice, i.p., tested 30 minutes after injection; 1b in aqueous solution, Examples 2 and 3 as suspensions with Tween 80 and water; probit analysis. As for the experimental part: The compounds of formula (I) are useful as anticonvulsant agents. The anticonvulsant activity of the subject compounds was determined using a standard "maximal electroshock test" (MES). In this test, activity is indicated by a block of the tonic extensor seizure caused by application of an electric shock to mice via corneal electrodes, as described by Swinyard et al in J. Pharmacol. Exptl. Therap. 106, 319 (1952). A more recent description of current anticonvulsant drug screening is given in Swinyard et al in Epilepsia 19, 409 (1978). Non-fasted male albino mice of the Swiss Webster strain (Royal-Hart Laboratories, New Hampton, N.Y.) weighing 18-24 grams were used in this test. Six to eight groups of ten mice each were used per ED50 determination. The product of Example 1b was administered in aqueous solution while the compounds produced in Examples 2 and 3 were administered as suspensions prepared with Tween 80 and water. Testing was conducted at 30 minutes following intraperitoneal injection of the test compound. A group of ten mice injected with saline 10 ml/kg i.p. and tested 30 minutes later served as controls. ED50 's were calculated using a computerized probit analysis procedure.
On to `CC1(C)OCC(COS(N)(=O)=O)O1` (stereo not drawn) [Example 1b, (2,2-Dimethyl-1,3-dioxolan-4-yl)methyl sulfamic acid ester], for which it took a dose of 105 mg/kg to reach the 50% effect level (ED50).
The result for `CCCCCCCCCC1(C)OCC(COS(N)(=O)=O)O1` (stereo not drawn) [Example 2, (2-Methyl-2-nonyl-1,3-dioxolan-4-yl)methyl sulfamic acid ester Hydrate compound with 2-undecanone (10:1:2)] reads 319 mg/kg.
As for `NS(=O)(=O)OCC1COC2(CCCCC2)O1` (stereo not drawn) [Example 3, (1,4-Dioxaspiro[4.5]dec-2-yl)methyl Sulfamic acid ester], the ED50 is 169 mg/kg.
